Laboratory results: patent US20030232994A1, “Bicyclic thiophene derivatives and combinatorial libraries thereof” (priority 2001, published 2003)

Test system: Streptococcus pyogenes (ATCC# 97-03 14289)
Experiment: Anti-microbial screen (growth inhibition, OD 570 nm)
Assay type: cell-based
Conditions: growth in Todd Hewitt Broth, plates read at 570 nm at 0 time and 4 hours, color corrected
Description: Streptococcus pyogenes (ATCC# 97-03 14289) was grown in Todd Hewitt Broth (THB) (Difco Laboratories #0492-17-6) overnight until reaching an optical density of (OD=0.636 @ 570 nm) by reading 0.1 ml in a 96 well microtiter plate in a Molecular Devices Thermomax. This preparation was kept frozen as stocks in 30% v/v glycerol in 1.5 ml aliquots at −70^mC. until use. Prior to experiments, […] aliquots were thawed and diluted into 50 ml 2×THB. 60 ul of this dilution was added to 92 wells of microtiter plate. To three wells THB (200 ul) was added to serve as a blank and a sterility control. Test compounds in DMSO and appropriate concentrations of DMSO were added to Growth/Solvent Controls at 0 time. Plates were read at 0 time at 570 nm in the Molecular Devices plate reader to obtain compounds correction factors for insoluble or colored compounds. Plates were read again at 4 hours.
Percent inhibition is calculated with the following formulae: [drawing 4]
Color correct=O.D. 0 hr−Blank 0 hr)−(Solvent Control 0 hr−Blank 0 hr)
% Inhibition=100−O.D. test compound 4 hr−Blank 4 hr−color correct O.D. growth/solvent control 4 hr−Blank 4 hr

O=C(Nc1sc2c(c1C(=O)O)CCN(C(=O)c1ccoc1)C2)c1ccccc1
% Inhibition: 94.53%

CCOc1ncccc1C(=O)N1CCc2c(sc(NC(=O)c3ccc(Cl)cc3)c2C(=O)O)C1
% Inhibition: 79.31%

CCCSc1ncccc1C(=O)N1CCc2c(sc(NC(=O)c3cccc(OC)c3)c2C(=O)O)C1
% Inhibition: 88.5%

CCCc1ccc(C(=O)Nc2sc3c(c2C(=O)O)CCN(C(=O)CC(C)C)C3)cc1
% Inhibition: 84.72%

O=C(Nc1sc2c(c1C(=O)O)CCN(C(=O)c1ccc(Cl)cc1)C2)c1ccccc1Cl
% Inhibition: 72.75%

O=C(Nc1sc2c(c1C(=O)O)CCN(C(=O)c1ccsc1)C2)c1ccccc1Cl
% Inhibition: 85.87%

Cc1ccccc1C(=O)N1CCc2c(sc(NC(=O)[C@]34C[C@H]5C[C@@H](C[C@H](C5)C3)C4)c2C(=O)O)C1
% Inhibition: 61.84%

CC(C)(C)c1ccc(C(=O)Nc2sc3c(c2C(=O)O)CCN(C(=O)c2ccc(C(F)(F)F)cc2)C3)cc1
% Inhibition: 59.57%

COc1cccc(C(=O)Nc2sc3c(c2C(=O)O)CCN(C(=O)c2cccc(F)c2C)C3)c1
% Inhibition: 73.59%

O=C(Nc1sc2c(c1C(=O)O)CCN(C(=O)c1ccc(F)c(F)c1)C2)c1ccc(Cl)cc1
% Inhibition: 82.59%

CCc1ccc(C(=O)Nc2sc3c(c2C(=O)O)CCN(C(=O)C2CCCCC2)C3)cc1
% Inhibition: 63.5%

Cc1ccc(C(=O)N2CCc3c(sc(NC(=O)c4ccc(C(C)(C)C)cc4)c3C(=O)O)C2)cn1
% Inhibition: 74.64%

Cc1c(F)cccc1C(=O)N1CCc2c(sc(NC(=O)c3ccc4ccccc4c3)c2C(=O)O)C1
% Inhibition: 73.27%

CC(=O)Nc1cccc(C(=O)N2CCc3c(sc(NC(=O)c4ccccc4)c3C(=O)O)C2)c1
% Inhibition: 96.85%

CCc1ccc(C(=O)Nc2sc3c(c2C(=O)O)CCN(C(=O)c2sccc2C)C3)cc1
% Inhibition: 60.88%

COc1ccccc1C(=O)Nc1sc2c(c1C(=O)O)CCN(C(=O)c1cccc(F)c1C)C2
% Inhibition: 63.41%

O=C(Nc1sc2c(c1C(=O)O)CCN(C(=O)c1cccc(Cl)c1)C2)c1ccccc1
% Inhibition: 94.99%

CC(=O)Nc1cccc(C(=O)N2CCc3c(sc(NC(=O)c4ccc(C(C)(C)C)cc4)c3C(=O)O)C2)c1
% Inhibition: 92.01%

CCC(=O)N1CCc2c(sc(NC(=O)c3ccc4ccccc4c3)c2C(=O)O)C1
% Inhibition: 62.98%

O=C(Nc1sc2c(c1C(=O)O)CCN(C(=O)c1ccc(F)c(F)c1)C2)c1ccccc1Cl
% Inhibition: 61.26%

C/C=C/C(=O)N1CCc2c(sc(NC(=O)c3ccccc3)c2C(=O)O)C1
% Inhibition: 94.99%

COc1cc(Cl)ccc1C(=O)N1CCc2c(sc(NC(=O)c3ccccc3)c2C(=O)O)C1
% Inhibition: 81.48%

CCCc1ccc(C(=O)Nc2sc3c(c2C(=O)O)CCN(C(=O)CCc2ccc(F)c(F)c2)C3)cc1
% Inhibition: 89.36%

CSc1ncccc1C(=O)N1CCc2c(sc(NC(=O)c3ccco3)c2C(=O)O)C1
% Inhibition: 62.35%

CCc1ccc(C(=O)Nc2sc3c(c2C(=O)O)CCN(C(=O)c2cccnc2SC)C3)cc1
% Inhibition: 63.83%

Cc1ccc(C(=O)N2CCc3c(sc(NC(=O)c4ccccc4)c3C(=O)O)C2)cn1
% Inhibition: 82.41%

COc1cccc(C(=O)N2CCc3c(sc(NC(=O)C4CCCCC4)c3C(=O)O)C2)c1OC
% Inhibition: 61.06%

CCc1ccc(C(=O)Nc2sc3c(c2C(=O)O)CCN(C(=O)c2ccc(Cl)cc2)C3)cc1
% Inhibition: 74.97%

CSc1ccccc1C(=O)N1CCc2c(sc(NC(=O)CC(C)CC(C)(C)C)c2C(=O)O)C1 (stereo not drawn)
% Inhibition: 95.62%

CCCCOc1ccc(C(=O)Nc2sc3c(c2C(=O)O)CCN(C(=O)c2cc4ccccc4s2)C3)cc1
% Inhibition: 89.4%

CC(C)C(=O)N1CCc2c(sc(NC(=O)c3ccc(C(C)(C)C)cc3)c2C(=O)O)C1
% Inhibition: 77.26%

Cc1ccc(C(=O)N2CCc3c(sc(NC(=O)c4ccc(Cl)cc4)c3C(=O)O)C2)c(C)c1
% Inhibition: 63.51%

Cc1ccccc1C(=O)N1CCc2c(sc(NC(=O)c3ccco3)c2C(=O)O)C1
% Inhibition: 90.41%

Cc1ccccc1C(=O)N1CCc2c(sc(NC(=O)C3CCCCC3)c2C(=O)O)C1
% Inhibition: 69.29%

CCC(C(=O)Nc1sc2c(c1C(=O)O)CCN(C(=O)Cc1cc(C)ccc1C)C2)c1ccccc1 (stereo not drawn)
% Inhibition: 80.75%

CCCc1ccc(C(=O)Nc2sc3c(c2C(=O)O)CCN(C(=O)c2ccc(F)cc2F)C3)cc1
% Inhibition: 88.03%

Cn1cc(C(=O)N2CCc3c(sc(NC(=O)c4ccccc4)c3C(=O)O)C2)c2ccccc21
% Inhibition: 87.54%

COc1ccc(OC)c(C(=O)N2CCc3c(sc(NC(=O)c4ccc(C(C)(C)C)cc4)c3C(=O)O)C2)c1
% Inhibition: 77.92%

O=C(Nc1sc2c(c1C(=O)O)CCN(C(=O)C1CCC1)C2)c1ccccc1
% Inhibition: 89.4%

O=C(CCC1CCCC1)Nc1sc2c(c1C(=O)O)CCN(C(=O)c1ccc(Cl)cc1)C2
% Inhibition: 66.09%

O=C(Nc1sc2c(c1C(=O)O)CCN(C(=O)c1cccc3ccccc13)C2)c1ccccc1
% Inhibition: 83.81%

Cc1ccsc1C(=O)N1CCc2c(sc(NC(=O)c3ccc(C(C)(C)C)cc3)c2C(=O)O)C1
% Inhibition: 68.74%

CC(=O)Nc1ccc(C(=O)N2CCc3c(sc(NC(=O)c4ccccc4Cl)c3C(=O)O)C2)cc1
% Inhibition: 76.33%

O=C(CCC1CCCC1)Nc1sc2c(c1C(=O)O)CCN(C(=O)C1CCCCC1)C2
% Inhibition: 65.37%

O=C(Nc1sc2c(c1C(=O)O)CCN(C(=O)c1ccc(F)c(F)c1)C2)c1ccc2ccccc2c1
% Inhibition: 87.61%

CCc1ccc(C(=O)Nc2sc3c(c2C(=O)O)CCN(C(=O)c2cccc4ccccc24)C3)cc1
% Inhibition: 67.43%

CC(C)(C)c1ccc(C(=O)Nc2sc3c(c2C(=O)O)CCN(C(=O)c2ccoc2)C3)cc1
% Inhibition: 61.2%

COc1ccc(OC)c(C(=O)N2CCc3c(sc(NC(=O)c4ccc(Cl)cc4)c3C(=O)O)C2)c1
% Inhibition: 70.67%

CC(C)(C)c1ccc(C(=O)Nc2sc3c(c2C(=O)O)CCN(C(=O)c2ccc(Cl)cc2)C3)cc1
% Inhibition: 68.41%

COc1cccc(C(=O)Nc2sc3c(c2C(=O)O)CCN(C(=O)c2cc4ccccc4s2)C3)c1
% Inhibition: 63.77%

O=C(Nc1sc2c(c1C(=O)O)CCN(C(=O)c1ccco1)C2)c1ccccc1
% Inhibition: 96.39%

CC(C)(C)c1ccc(C(=O)Nc2sc3c(c2C(=O)O)CCN(C(=O)CC2CCCC2)C3)cc1
% Inhibition: 79.23%

Cc1c(F)cccc1C(=O)N1CCc2c(sc(NC(=O)c3ccc(Cl)cc3)c2C(=O)O)C1
% Inhibition: 78.42%

COc1cccc(C(=O)N2CCc3c(sc(NC(=O)c4ccc5ccccc5c4)c3C(=O)O)C2)c1OC
% Inhibition: 64.54%

O=C(Nc1sc2c(c1C(=O)O)CCN(C(=O)CC1CCCC1)C2)c1ccc(Cl)cc1
% Inhibition: 82.59%

CCCc1ccc(C(=O)Nc2sc3c(c2C(=O)O)CCN(C(=O)c2ccccc2SC)C3)cc1
% Inhibition: 90.02%

CCCc1ccc(C(=O)Nc2sc3c(c2C(=O)O)CCN(C(=O)CC2CCCC2)C3)cc1
% Inhibition: 61.53%

O=C(Nc1sc2c(c1C(=O)O)CCN(C(=O)c1ccc(F)cc1F)C2)c1ccc2ccccc2c1
% Inhibition: 66.41%

Cc1c(F)cccc1C(=O)N1CCc2c(sc(NC(=O)C3CCCCC3)c2C(=O)O)C1
% Inhibition: 63.92%

COc1cc(Cl)ccc1C(=O)N1CCc2c(sc(NC(=O)c3c(F)cccc3F)c2C(=O)O)C1
% Inhibition: 59.98%

CCCc1ccc(C(=O)Nc2sc3c(c2C(=O)O)CCN(C(=O)c2ccccc2C(F)(F)F)C3)cc1
% Inhibition: 64.51%

O=C(Nc1sc2c(c1C(=O)O)CCN(C(=O)C1CCCCC1)C2)c1ccc(Cl)cc1
% Inhibition: 72.46%

COc1ccc(OC)c(C(=O)N2CCc3c(sc(NC(=O)c4ccccc4)c3C(=O)O)C2)c1
% Inhibition: 73.56%

COc1cccc(C(=O)Nc2sc3c(c2C(=O)O)CCN(C(=O)c2ccc(F)c(F)c2)C3)c1
% Inhibition: 75.77%

CCCSc1ncccc1C(=O)N1CCc2c(sc(NC(=O)c3ccc4ccccc4c3)c2C(=O)O)C1
% Inhibition: 67.03%

COc1cccc(C(=O)N2CCc3c(sc(NC(=O)c4ccccc4Cl)c3C(=O)O)C2)c1OC
% Inhibition: 60.53%

O=C(CCC1CCCC1)Nc1sc2c(c1C(=O)O)CCN(C(=O)c1ccc(F)c(F)c1)C2
% Inhibition: 61.45%

O=C(CCC1CCCC1)Nc1sc2c(c1C(=O)O)CCN(C(=O)/C=C/c1ccc(Cl)cc1)C2
% Inhibition: 67.51%

Cc1c(F)cccc1C(=O)N1CCc2c(sc(NC(=O)c3ccco3)c2C(=O)O)C1
% Inhibition: 72.33%

O=C(Nc1sc2c(c1C(=O)O)CCN(C(=O)C1CCC1)C2)c1ccc2ccccc2c1
% Inhibition: 59.86%

O=C(Nc1sc2c(c1C(=O)O)CCN(C(=O)c1ccsc1)C2)c1ccccc1
% Inhibition: 93.59%

CCCc1ccc(C(=O)Nc2sc3c(c2C(=O)O)CCN(C(=O)C2CCC2)C3)cc1
% Inhibition: 95.65%

CC(C)(C)c1ccc(C(=O)Nc2sc3c(c2C(=O)O)CCN(C(=O)C2CCC2)C3)cc1
% Inhibition: 98.89%

CCCc1ccc(C(=O)Nc2sc3c(c2C(=O)O)CCN(C(=O)c2cccnc2SC)C3)cc1
% Inhibition: 86.05%

CCc1ccc(C(=O)Nc2sc3c(c2C(=O)O)CCN(C(=O)c2ccc(C(F)(F)F)cc2)C3)cc1
% Inhibition: 63.17%

CCCc1ccc(C(=O)Nc2sc3c(c2C(=O)O)CCN(C(=O)c2ccc(F)c(F)c2)C3)cc1
% Inhibition: 86.71%

Cc1ccsc1C(=O)N1CCc2c(sc(NC(=O)c3ccc(Cl)cc3)c2C(=O)O)C1
% Inhibition: 62.02%

O=C(Nc1sc2c(c1C(=O)O)CCN(C(=O)c1cccc3ccccc13)C2)c1ccccc1Cl
% Inhibition: 65.9%
